According to patent US20260007601A1, “IONIZABLE CATIONIC LIPID COMPOUND AND COMPOSITION FOR DELIVERING NUCLEIC ACID AND USE THEREOF” (BEIJING YOUCAREKECHUANG PHARMACEUTICAL TECHNOLOGY CO., LTD., priority 2023, published 2026):

Experiments:
female BALB/C mice = assay: Mouse in vivo imaging of Fluc-mRNA LNP formulations; parameters: average radiation intensity (mRNA expression): unit not given here; conditions: 10 μg Fluc-mRNA LNP intramuscularly
Description: The LNP formulation containing 10 μg Fluc-mRNA (prepared according to Example 4) was injected intramuscularly into female BALB/C mice aged 4 to 6 weeks and weighing 17 to 19 g, and the mice were intraperitoneally injected with fluorescent imaging substrates at specific time points (6 h, 24 h, 48 h and 7 d) after administration. The mice moved freely for 5 minutes, and then the average radiation intensity (corresponding to the fluorescence expression intensity) of the protein expressed by the mRNA carried by the LNP in the mice was detected by IVIS Spectrum small animal in vivo imager. The test results are shown in Tables 14 to 17 and FIGS. 12 to 14.

293T cells [1] = assay: Cell survival rate assay (CCK-8); type: cell-based; conditions: LNP containing 1.5 μg Fluc-mRNA, 24 hours, CCK-8
Description: (§1) Cell recovery and passaging: 293T cells were recovered and cultured in culture dishes to the required cell number.
(§2) Plating: The cells in the culture dish were digested, counted, plated in a 96-well plate at 10,000 cells per well, or in a 12-well plate at 150,000 cells per well, and cultured overnight until the cells adhered to the wall.
(§3) Cell recovery and passage: The method was the same as in Example 3.
(§4) Plating: The method was the same as Example 3.
The LNP formulations containing 1.5 μg Fluc-mRNA (prepared according to Example 4, the LNP formulation carrier components are cationic lipids, neutral lipids, structured lipids and polymer-conjugated lipids at a molar ratio of 49:10:39.5:1.5, wherein the cationic lipids are the cationic lipids listed in Table 1) and the Lipofectamine 3000 formulation were added to the cell culture medium of the 96-well plate, and the culture was continued for 24 hours. Then, 10 μL of CCK-8 solution was added to each well, and the culture plate was incubated in the incubator for 1 hour, and the absorbance at 450 nm was measured by a microplate reader.

[2] = Encapsulation rate, drug loading concentration and total RNA concentration detection (RiboGreen); type: physicochemical; conditions: LNP formulation of the named lipid
Excerpt: Encapsulation rate is a key quality attribute of liposomes. It refers to the percentage of drug content encapsulated in the lipid bilayer to the total amount of drug added, which can reflect the degree of drug encapsulation in liposomes. The Chinese Pharmacopoeia stipulates that the encapsulation rate should usually not be less than 80%.
The drug loading capacity is the ratio of the amount of drug in the liposome to the total amount of drug and carrier in the liposome. The drug loading capacity directly affects the clinical application dose of the drug, so the larger the drug loading capacity, the more it can meet clinical needs. The drug loading concentration is proportional to the drug loading capacity, and the relative proportion of the drug loading concentration can represent the relative proportion of the drug loading capacity. The relative proportion of the total RNA concentration can represent the relative proportion of the amount of mRNA carried by the LNP formulation.
1×TE buffer, 0.1% Triton X-100 buffer, and RiboGreen reagent (1:200) and mRNA standard stock solution were prepared.
An appropriate amount of sample was taken and added to an appropriate amount of 1×TE buffer, which was diluted to a solution containing about 2.8 μg of the test sample per 1 mL. Then the sample was added to a 96-well plate, where 50 μL of the diluted test sample or mRNA standard stock solution was added to each well, and then added with 1×TE buffer and 0.1% Triton X-100 buffer. The samples were incubated at 37° C. for 10 minutes, and 100 μL of RiboGreen reagent (1:200) was added to each well of the 96-well plate. The plate was centrifuged, and read using an ELISA reader, and the data was processed.

293T cells [3] = assay: Fluorescence detection of Fluc-mRNA (cell transfection efficiency of LNP formulations); type: cell-based; conditions: for Relative light unit (RLU): LNP containing 0.3 μg Fluc-mRNA, 24 hours; for Multiples of values that equivalent to YK-201: RLU of YK-201 / RLU of the named lipid; for Multiples of values that equivalent to YK-202: RLU of YK-202 / RLU of the named lipid; for Multiples of values that equivalent to YK-209: RLU of YK-209 / RLU of the named lipid; for Ratio relative to SM-102: RLU of the named lipid / RLU of SM-102, times that of SM-102
Description: as §1, §2, §3, §4
The LNP formulation containing 0.3 μg Fluc-mRNA (prepared according to Example 4, the LNP formulation carrier components were cationic lipids, neutral lipids, structured lipids and polymer-conjugated lipids at a molar ratio of 49:10:39.5:1.5, and the cationic lipids were cationic lipids listed in Table 1) was added to the cell culture medium of a 96-well plate, and cultured for 24 hours. After that, the corresponding reagents were added according to the instructions of the Gaussia Luciferase Assay Kit, and the fluorescence expression intensity of each well was detected by the IVIS fluorescence detection system. This experiment verified the transfection efficiency of the LNP formulation in the cell, and the specific detection results are shown in Tables 6-9.

[4] = Particle size and polydispersity index (PDI) of nanolipid particles, dynamic light scattering; type: physicochemical; conditions: LNP formulation prepared from the named cationic lipid, 25° C
Description: The particle size and polydispersity index (PDI) were determined by dynamic light scattering method using a Malvern laser particle size analyzer. 10 μL of liposome solution was diluted to 1 mL with RNase-free deionized water and added to a sample pool. Each sample was measured three times. The measurement conditions were: 90° scattering angle, 25° C.

| Drug loading concentration [2] [µg/mL] | Encapsulation rate [2] [%] | Total RNA concentration [2] [µg/mL] | PDI [4] [%] | Particle size [4] [nm] | SMILES | average radiation intensity (mRNA expression) (female BALB/C mice; 6 h) | average radiation intensity (mRNA expression) (female BALB/C mice; 24 h) | average radiation intensity (mRNA expression) (female BALB/C mice; 48 h) | average radiation intensity (mRNA expression) (female BALB/C mice; 7 d) | Cell survival rate (293T cells [1]) [%] | Relative light unit (RLU) (293T cells [3]) | Multiples of values that equivalent to YK-201 (293T cells [3]) | Multiples of values that equivalent to YK-202 (293T cells [3]) | Multiples of values that equivalent to YK-209 (293T cells [3]) | Ratio relative to SM-102 (293T cells [3]) |
| --- | --- | --- | --- | --- | --- | --- | --- | --- | --- | --- | --- | --- | --- | --- | --- |
| 26.86 | 63.0 | 38.62 | 13.0 | 202 | CCCCCCCCCCOC(=O)CCCN(CCO)CCCCCC(=O)OCC(CCCCCCCC)CCCCCCCC [YK-009, reference compound] | 1012400 | 767850 | 128570 | 10741 | 72.88 | 5125986 | 5.56 | 5.84 | 5.24 | 3.08 |
| 29.30 | 68.0 | 43.13 | 20.8 | 219 | CCCCCCCCCCCOC(=O)CCCCCN(CCCCCCCC(=O)OC(CCCCCCCC)CCCCCCCC)CCN(C)CCOC [YK-215] | 50564 | 6815 | 3640 | 1020 | 44.59 | 981165 | 29.03 | 30.53 | 21.46 | 0.59 |
| 26.05 | 62.8 | 37.12 | 15.9 | 218 | CCCCCCCCC(CCCCCC)C(=O)OCCCCCCN(CCCCO)CCCCCCOC(=O)C(CCCCCC)CCCCCCCC (centres unmarked) [ALC-0315, reference compound] | 842355 | 182350 | 38130 | 6588 | 49.96 | 2147045 | 13.27 | 13.95 | 12.51 | 1.29 |
| 27.36 | 61.3 | 44.64 | 13.7 | 219 | CCCCCCCCCCOC(=O)CCCN(CCCCCC(=O)OCC(CCCCCCCC)CCCCCCCC)CCN(C)CCOC [YK-216] |  |  |  |  | 45.80 | 2280300 | 12.49 | 13.14 | 9.24 | 1.37 |
| 31.46 | 95.4 | 32.98 | 21.9 | 237 | CCCCCCCCCCOC(=O)CCCN(CCCCCC(=O)OCC(CCCCCCCC)CCCCCCCC)CCN(C)CCNC [YK-221] |  |  |  |  | 20.95 | 27960 | 1018.69 | 1071.44 | 753.17 | 0.02 |
| 38.81 | 98.7 | 39.31 | 30.3 | 185 | CCCCCCCCC(CCCCCCCC)OC(=O)CCCCCN(CCCCCC(=O)OC(CCCCCCCC)CCCCCCCC)CCN(C)CCNC [YK-224] |  |  |  |  | 23.47 | 88020 | 323.59 | 340.35 | 239.25 | 0.05 |
| 38.16 | 96.7 | 39.46 | 31.5 | 203 | CCCCCCC(CCCCCC)CCOC(=O)CCCCCN(CCCCCC(=O)OCCC(CCCCCC)CCCCCC)CCN(CCO)CCO [YK-214, bis(3-hexylnonyl)-6,6-((2-(bis(2-hydroxyethyl)amino)ethyl)azadialkyl)dihexanoate] |  |  |  |  | 25.58 | 4582178 | 6.22 | 6.54 | 4.60 | 2.75 |
| 37.80 | 88.2 | 42.84 | 24.4 | 167 | CCCCCCCCCCOC(=O)CCCN(CCCCCC(=O)OCC(CCCCCCCC)CCCCCCCC)CCN(CC)CCO [YK-208] |  |  |  |  | 46.68 | 3858487 | 7.38 | 7.76 | 5.46 | 2.32 |
| 36.50 | 85.6 | 42.62 | 22.9 | 224 | CCCCCCCCC(CCCCCCCC)OC(=O)CCCCCN(CCCCCC(=O)OC(CCCCCCCC)CCCCCCCC)CCN(C)CCO [YK-210, bis(heptadecan-9-yl)-6,6′-((2-(2-hydroxyethyl(methyl)amino)ethyl)azadialkyl)dihexanoate] |  |  |  |  | 38.38 | 4628355 | 6.15 | 6.47 | 4.55 | 2.78 |
| 30.02 | 68.4 | 43.92 | 17.7 | 219 | CCCCCCCCCCCOC(=O)CCCCCN(CCCCCCCC(=O)OC(CCCCCCC)CCCCCCC)CCN(CC)CCO [YK-205] |  |  |  |  | 58.92 | 1029168 | 27.68 | 29.11 | 20.46 | 0.62 |
